Here are results for six molecules from patent US20050260629A1, “Differential drug sensitivity” (Ludwig Institute for Cancer Research, priority 2004, published 2005).

Format in all cases: cell-based, Human
For data set [1], the system named is proapoptotic promoter Pig3. The data set can be described thus: Pig3Luciferase reporter transactivation, transient transfection in MCF7 cells. Conditions: treated 24 hours. As to the method:
(§1) Adherent cells were grown to a confluence of 70-80% in fresh medium. Cells were plated 24 hours prior to the transfection procedure. The medium on the dishes was replaced with 3 ml of fresh medium 15-30 minutes before the transfection. 2×HBS buffer (280 mM NaCl, 10 mM KCL, 1.4 mM Na2HPO4.2H2O, 12 mM glucose, 39 mM HEPES, adjusted to a pH 6.9-7.3) was diluted in sterile water to a concentration of 1× in a final volume of 300 μl. The required amount of DNA was added using sterile Gilson tips and mixed thoroughly. To form the precipitate, 12.5 μl of 2.5 M CaCl2 was added to the transfection mix and left at room temperature for 12-15 minutes. Six hours later dishes were washed with medium without serum once before adding 3 ml of fresh medium supplemented with 10% serum until further analysis of cells.
Twenty four hours after transfection, the cells were lysed in Reporter Lysis buffer supplied by Promega and assayed using the Luciferase assay kit (Promega), measuring luciferase activity with the Autolumat Plus (Berthold technologies). The fold activation of a particular reporter was determined by the activity of the transfected plasmid divided by the activity of vector alone. The fold increase of activity in response to drug treatment was obtained by the activity in the presence of drug divided by the activity of the untreated sample. […]

The test system of another data set is Pig3 promoter. The data set can be described thus: Pig3Luciferase stable U2OS cell line. As to the method:
(§2) Cells were co-transfected with 1 μg of the plasmid of interest and 4 μg of pCDNA3, which contains the resistance gene against neomycin for 6 hours. They were washed once with PBS and cultured in medium supplemented with neomycin. Twenty four hours later they were split and plated at different dilutions (from 1:50 to 1:200) in medium containing neomycin. The medium was changed every three days for two weeks until colonies formed. Colonies were picked and sub-cultured into a 24-well plate. After proliferation of each colony, cells were characterized either by luciferase assays or by western blotting according to the cell line.
(§3) Twenty four hours after transfection, the cells were lysed in Reporter Lysis buffer supplied by Promega and assayed using the Luciferase assay kit (Promega), measuring luciferase activity with the Autolumat Plus (Berthold technologies). The fold activation of a particular reporter was determined by the activity of the transfected plasmid divided by the activity of vector alone. The fold increase of activity in response to drug treatment was obtained by the activity in the presence of drug divided by the activity of the untreated sample.
(§4) Pig3Luciferase, Pig3-delFLuciferase (similar to the Pig3 promoter but without the p53 binding site), p21Luciferase, MDM2Luciferase reporters were used to generate four cell lines in U2OS cells.

A further data set relates to p21 promoter. The data set can be described thus: p21Luciferase stable U2OS cell line. The procedure: as §2, §3, §4
Another data set concerns ASPP1 promoter. In words: ASPP1 promoter luciferase stable U2OS cell line. The procedure:
as §2, §3
(§5) ASPP might respond to drugs in many ways in cells. To start investigating this, stable cell lines expressing luciferase under the control of the ASPP1 or ASPP2 promoters were created in U2OS cells. For each cell line, two clones were tested with the six drugs used previously. […] At the same time, these cell lines were used to titrate drugs.

Another data set deals with MDM2 promoter. In words: MDM2Luciferase stable U2OS cell line. As to the method:
as §2, §3, §4

Data set [2] deals with proapoptotic promoter Pig3. The data set can be described thus: Pig3Luciferase reporter transactivation, transient transfection in U2OS cells. The following applies: treated 24 hours. The procedure:
as §1, §3
Some of the drugs commonly used in cancer therapy are known to stimulate p53 transactivation activity. To test their effect on a proapoptotic promoter specifically transactivated by p53, U2OS and MCF7 cells (both wild type p53) were transiently transfected with the proapoptotic reporter Pig3Luciferase and then treated for 24 hours with eight different compounds (FIGS. 1A and 1B).
Si—RNA cloned into pSuper plasmid (Brummelkamp et al., Science. 296(5567):550-3, 2002) was transiently transfected with the Pig3 reporter into U2OS cells treated with doxorubicin or cisplatin (FIG. 3A).
(In a reporter assay the amount or activity of a reporter protein is the signal.)

The next data set concerns ASPP2 promoter. The data set can be described thus: ASPP2 promoter luciferase stable U2OS cell line. As to the method: as §2, §3, §5
A further data set deals with deleted Pig3 promoter. In words: Pig3-delFLuciferase stable U2OS cell line (no p53 binding site). The procedure:
as §2, §3, §4

The mark [3] stands for this setting: drug titration, regardless of the concentration.

Structures are written as SMILES. Entries after “also recorded” stand apart in the source; their conditions may differ.

Regarding `COc1cccc2c1C(=O)c1c(O)c3c(c(O)c1C2=O)C[C@@](O)(C(C)=O)C[C@@H]3O[C@H]1C[C@H](N)[C@H](O)[C@H](C)O1` [daunorubicin], the “ability of p53 to transactivate the Pig3 promoter” value (“ability of p53” below) in data set [1] and in data set [2] was “strongly increased” in each case. The Pig3-Luciferase activity entry in the data set with Pig3 promoter is recorded as “specifically stimulated”. In addition, the p21 promoter activity entry with p21 promoter was “not p21 or MDM2”. Further, the ASPP1Luciferase reporter activity result with ASPP1 promoter (setting [3]) is on record as “little effect”. Also, in the data set with MDM2 promoter, the MDM2 promoter activity result is “not p21 or MDM2”. In addition, the “Pig3 promoter activity went up by” value in data set [2] was 34.7 fold. Also, in the data set with ASPP2 promoter (clone 4, titration, at 150 ng/ml), the “ASPP2 promoter activity increase” value was 4 fold. The ASPP2 promoter activity result with ASPP2 promoter (stable U2OS, clone 4) is given as “stimulated”.

Regarding `COc1cc([C@@H]2c3cc4c(cc3[C@@H](O[C@@H]3O[C@@H]5CO[C@@H](C)O[C@H]5[C@H](O)[C@H]3O)[C@H]3COC(=O)[C@H]23)OCO4)cc(OC)c1O` [etoposide], in the data set with Pig3 promoter, the Pig3-Luciferase activity entry is on record as “did not affect”. The p21 promoter activity result in the data set with p21 promoter is on record as “did not affect”. In the data set on MDM2 promoter, the MDM2 promoter activity entry is “did not affect”.

In the case of `CO[C@@]12[C@H](COC(N)=O)C3=C(C(=O)C(C)=C(N)C3=O)N1C[C@@H]1N[C@@H]12` [mitomycin C], the Pig3-Luciferase activity entry in the data set on Pig3 promoter is recorded as “did not affect”. Besides, the p21 promoter activity result with p21 promoter is listed as “did not affect”. In the data set with MDM2 promoter, the MDM2 promoter activity result was “did not affect”.

As for `O=c1[nH]cc(F)c(=O)[nH]1` [5-Fluorouracil], the “Pig3 promoter activity induced by” value in the data set with Pig3 promoter is “three”. In addition, in the data set on ASPP1 promoter (drug titration), the “concentration inducing the maximum ASPP1Luciferase reporter activity” value amounted to 40 µg/mL. For the same molecule, in the data set with ASPP1 promoter (stable U2OS, two clones, after 24 hours, listed as 5-fluorouracil), the ASPP1 promoter activity entry is “activates”. Also, in the data set with MDM2 promoter, the “effect on the MDM2 promoter” value stood at 7 fold. Further, the “ability of p53” value in data set [2] is on record as “able to induce such induction”. Besides, the ASPP2 promoter activation with ASPP2 promoter (clone 4, titration, at 40 μg/ml) was 3 fold.

Regarding `N.N.[Cl][Pt][Cl]` [cisplatin], the Pig3-Luciferase activity entry with Pig3 promoter is reported as “did not affect”. Further, the p21 promoter activity entry in the data set on p21 promoter is given as “did not affect”. In addition, in the data set with ASPP1 promoter (setting [3]), the ASPP1Luciferase reporter activity entry was “little effect”. For the same molecule, in the data set on MDM2 promoter, the MDM2 promoter activity entry is reported as “did not affect”. In data set [2], the “Pig3 promoter activity went up by” value amounted to 2.9 fold and the “ability of p53” value is recorded as “did not have the same efficiency as doxorubicin”. Moreover, the ASPP2 promoter activity entry in the data set with ASPP2 promoter (clone 4, drug titration) is on record as “no effect”.

In the case of `COc1cccc2c1C(=O)c1c(O)c3c(c(O)c1C2=O)C[C@@](O)(C(=O)CO)C[C@@H]3O[C@H]1C[C@H](N)[C@H](O)[C@H](C)O1` [doxorubicin], the “ability of p53” value in data set [1] and in data set [2] was “strongly increased” in each case. In the data set on Pig3 promoter, the Pig3-Luciferase activity entry is reported as “respond; also recorded: specifically stimulated”. Moreover, the p21 promoter activity result in the data set on p21 promoter was “not p21 or MDM2”. This molecule also returned an ASPP1Luciferase reporter activity with ASPP1 promoter (drug titration, at 2 μM) of 2 fold. The “toxicity in ASPP1Luciferase cells” value in the data set on ASPP1 promoter (drug titration, concentration reached 3 μM) is “toxic”. Further, in the data set on MDM2 promoter, the MDM2 promoter activity result is reported as “not p21 or MDM2”. Also, the “activity of the deleted Pig3 promoter” value with deleted Pig3 promoter is given as “did not affect”. In addition, the ASPP2 promoter activity entry is “activates” in the data set on ASPP2 promoter (FIGS. 4A and 4B (both clones)); “had an effect” in the data set on ASPP2 promoter (stable U2OS, clone 3); “stimulated” in the data set with ASPP2 promoter (stable U2OS, clone 4). For the same molecule, in the data set on ASPP2 promoter (clone 4, titration, at 2 μM (highest effect)), the “ASPP2 promoter activity, increase over the control” value was found to be 10 fold.
